The target in this experiment is chymotrypsin (Bos taurus, UniProt P00766). In words: chymotrypsin inhibitory effect (procedure of Muramatsu et al; acetyl-L-tyrosine ethyl ester substrate, Hestrin method). The class given is biochemical. The following applies: 10 min preincubation, pH 8.0 Tris-HCl, 37° C., 30 min, absorbance 530 nm, read-out: Inhibitory Activity, 50% Inhibitory Concentration. As for the experimental part: Some selected compounds of this invention were tested with respect to their chymotrypsin inhibitory effects.
The tests were conducted in accordance with the procedure of Muramatsu et al [The Journal of Biochemistry, 62, 408 (1967)]. A mixture was prepared which was made up of 0.1 ml of a dimethylsulfoxide solution of each test compound, 0.1 ml of water and 0.1 ml of a buffer solution containing 10 μg/ml of chymotrypsin (0.1M Tris-HCl buffer, pH 8.0). The mixture was incubated for 10 minutes, followed by addition of 0.2 ml of a buffer solution containing 25 mM of an ethyl ester of acetyl-L-tyrosine. The resulting mixture was reacted at 37° C. for 30 minutes. The remaining substrate was caused to develop a color by the Hestrin method, whereupon its absorbance was measured at 530 nm. For comparative purposes, use was made of tosylphenylalanine chloromethyl ketone (TPCK) which is known as a good inhibitor for chymotrypsin.
With `Cc1[nH]c2ccccc2c1CC(=O)Oc1ccc(C(=O)N2CCN(C(C)C)CC2)cc1` [Example 10], the IC50 stood at 700 nM.

On to `CC(C)N1CCN(C(=O)c2ccc(OC(=O)Cc3c[nH]c4ccccc34)cc2)CC1` [Example 14], for which the IC50 is 6000 nM.

For `CCCCc1ccc2[nH]c(C)c(CC(=O)Oc3ccc(C(=O)N4CCN(C(C)C)CC4)cc3)c2c1` [Example 5], the IC50 worked out at 600 nM.

Take `Cc1ccc(S(=O)(=O)NC(Cc2ccccc2)C(=O)CCl)cc1` (centres unmarked) [TPCK, tosylphenylalanine chloromethyl ketone, reference compound]: the IC50 was 500000 nM.

With `COc1ccc2c(c1)c(CC(=O)Oc1ccc(C(=O)N3CCN(C(C)C)CC3)cc1)c(C)n2C` [Example 2], the IC50 was determined as 300 nM.

Turning to `COc1ccc2[nH]c(C)c(CC(=O)Oc3ccc(C(=O)N4CCN(C(C)C)CC4)cc3)c2c1` [Example 3], the IC50 worked out at 400 nM.

As for `Cc1ccc2[nH]c(C)c(CC(=O)Oc3ccc(C(=O)N4CCN(C(C)C)CC4)cc3)c2c1` [Example 4], the IC50 turned out to be 500 nM.

`COc1ccc2[nH]cc(CC(=O)Oc3ccc(C(=O)N4CCN(C(C)C)CC4)cc3)c2c1` [Example 7]: the IC50 came to 80 nM.

The record behind these values is patent publication US4605739A, “Benzoyl indolecarboxylates” (Kowa Co., Ltd., priority 1983, dated 1986).
